Measured values reported in publication PMC10759932 (Nature cell biology, 2023).

What was measured:
[1] = biological target: T1, PcaK (Pseudomonas putida, UniProt Q51955); experiment: radiolabelled uptake into E. coli cells; type: cell-based; conditions: 50 μM 4-HB; whole E. coli cells; labelled compound
T1 sequence (Q51955 1-448): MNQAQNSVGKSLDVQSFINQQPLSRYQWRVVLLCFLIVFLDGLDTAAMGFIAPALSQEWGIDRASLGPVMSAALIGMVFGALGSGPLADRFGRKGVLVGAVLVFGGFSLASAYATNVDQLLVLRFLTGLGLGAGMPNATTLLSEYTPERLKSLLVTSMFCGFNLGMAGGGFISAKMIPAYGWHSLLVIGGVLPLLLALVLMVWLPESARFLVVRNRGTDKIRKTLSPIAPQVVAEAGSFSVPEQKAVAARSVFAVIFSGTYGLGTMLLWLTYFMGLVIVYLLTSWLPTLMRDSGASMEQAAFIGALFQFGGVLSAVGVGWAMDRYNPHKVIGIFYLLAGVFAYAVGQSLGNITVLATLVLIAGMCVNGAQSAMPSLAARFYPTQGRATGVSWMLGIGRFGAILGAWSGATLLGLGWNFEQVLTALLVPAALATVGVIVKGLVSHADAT

[2] = biological target: S. pombe Hem25p (Schizosaccharomyces pombe, UniProt Q9P6N6); conditions: whole E. coli cells; labelled compound
Chain of S. pombe Hem25p (Q9P6N6 whole entry): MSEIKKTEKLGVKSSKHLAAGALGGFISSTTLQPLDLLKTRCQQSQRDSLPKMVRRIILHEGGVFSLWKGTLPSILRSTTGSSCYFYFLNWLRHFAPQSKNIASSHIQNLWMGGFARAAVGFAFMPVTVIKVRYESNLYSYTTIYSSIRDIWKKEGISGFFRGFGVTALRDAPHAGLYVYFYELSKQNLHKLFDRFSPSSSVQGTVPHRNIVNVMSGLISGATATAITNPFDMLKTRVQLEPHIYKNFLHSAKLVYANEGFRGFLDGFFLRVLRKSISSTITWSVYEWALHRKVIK

| SMILES | radiolabelled uptake into E. coli cells [1] | radiolabelled uptake into E. coli cells [2] |
| --- | --- | --- |
| O=C(O)c1ccc(O)cc1 [4-HB] | Uptake of 4-HB was only seen when the known bacterial 4-HB transporter PcaK was expressed |  |
| C=C(C)CCOP(=O)(O)OP(=O)(O)O [IPP] |  | Hem25p from S. pombe and S. cerevisiae |
